Test results reported in patent US20100075926A1, “ACTIVATION OF HISTONE DEACETYLASE 1 (HDAC1) PROTECTS AGAINST DNA DAMAGE AND INCREASES NEURONAL SURVIVAL” (priority 2008, published 2010).

Experiments:
Format in all cases: biochemical
recombinant human HDAC5 = biological target: T1, recombinant human HDAC5 (Homo sapiens, UniProt Q9UQL6); assay: 384-well fluorometric deacetylase assay (substrate MAZ1675), HDAC5; settings: for HDAC5 slope: rate of reaction (slope), DMSO control 50401; for % HDAC5 activ: slope normalized to mean of DMSO control (DMSO = 1.00)
T1 construct: purchased BPS Biosciences
T1 sequence (Q9UQL6 whole entry): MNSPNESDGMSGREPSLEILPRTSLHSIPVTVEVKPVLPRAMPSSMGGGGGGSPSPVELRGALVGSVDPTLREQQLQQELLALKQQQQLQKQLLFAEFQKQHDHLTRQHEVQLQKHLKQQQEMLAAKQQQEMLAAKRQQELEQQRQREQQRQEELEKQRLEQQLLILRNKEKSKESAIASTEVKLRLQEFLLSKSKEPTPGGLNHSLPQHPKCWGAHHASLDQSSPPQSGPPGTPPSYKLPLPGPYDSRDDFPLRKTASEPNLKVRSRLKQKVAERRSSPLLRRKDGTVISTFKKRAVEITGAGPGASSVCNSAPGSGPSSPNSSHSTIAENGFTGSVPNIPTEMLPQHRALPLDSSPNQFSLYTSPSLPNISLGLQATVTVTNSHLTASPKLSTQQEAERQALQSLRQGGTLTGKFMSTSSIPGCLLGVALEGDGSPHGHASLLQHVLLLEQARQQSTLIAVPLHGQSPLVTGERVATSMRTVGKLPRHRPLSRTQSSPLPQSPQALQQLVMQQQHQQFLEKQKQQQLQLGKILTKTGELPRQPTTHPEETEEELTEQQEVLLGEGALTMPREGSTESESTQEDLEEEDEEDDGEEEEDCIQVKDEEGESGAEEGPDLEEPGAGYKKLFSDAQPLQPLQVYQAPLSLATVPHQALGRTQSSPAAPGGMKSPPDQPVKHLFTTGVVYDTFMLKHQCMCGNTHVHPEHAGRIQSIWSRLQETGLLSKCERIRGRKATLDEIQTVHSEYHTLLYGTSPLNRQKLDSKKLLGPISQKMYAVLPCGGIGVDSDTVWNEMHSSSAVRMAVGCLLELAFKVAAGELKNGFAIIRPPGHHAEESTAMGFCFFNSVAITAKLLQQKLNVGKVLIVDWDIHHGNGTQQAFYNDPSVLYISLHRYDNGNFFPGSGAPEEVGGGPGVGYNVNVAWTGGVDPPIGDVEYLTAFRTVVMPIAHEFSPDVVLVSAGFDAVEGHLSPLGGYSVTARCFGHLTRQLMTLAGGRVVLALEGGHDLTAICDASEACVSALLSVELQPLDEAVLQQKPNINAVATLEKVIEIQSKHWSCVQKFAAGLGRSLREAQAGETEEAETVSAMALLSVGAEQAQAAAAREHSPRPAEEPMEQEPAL
Source text: (§1) TCEP was omitted from the assay buffer. Rates of reactions (slopes) were normalized to the mean of DMSO control treatments for each enzyme on each plate. Bradner J E, West N, Grachan M L, Greenberg E F, Haggarty S J, Mazitsheck. Nature Chemical Biology (under review). Bradner J E, West N, Grachan M L, Greenberg E F, Haggarty S J, Mazitsheck. Chemical Phylogenetics of Histone Deacetylases. […] Z

recombinant human HDAC3 = biological target: T2, recombinant human HDAC3 (Homo sapiens, UniProt O15379); assay: 384-well fluorometric deacetylase assay (substrate MAZ1600), HDAC3; settings: for HDAC3 slope: rate of reaction (slope), DMSO control 54625; for % HDAC3 Activ: slope normalized to mean of DMSO control (DMSO = 1.00)
T2 construct: purchased BPS Biosciences
T2 sequence (O15379 whole entry): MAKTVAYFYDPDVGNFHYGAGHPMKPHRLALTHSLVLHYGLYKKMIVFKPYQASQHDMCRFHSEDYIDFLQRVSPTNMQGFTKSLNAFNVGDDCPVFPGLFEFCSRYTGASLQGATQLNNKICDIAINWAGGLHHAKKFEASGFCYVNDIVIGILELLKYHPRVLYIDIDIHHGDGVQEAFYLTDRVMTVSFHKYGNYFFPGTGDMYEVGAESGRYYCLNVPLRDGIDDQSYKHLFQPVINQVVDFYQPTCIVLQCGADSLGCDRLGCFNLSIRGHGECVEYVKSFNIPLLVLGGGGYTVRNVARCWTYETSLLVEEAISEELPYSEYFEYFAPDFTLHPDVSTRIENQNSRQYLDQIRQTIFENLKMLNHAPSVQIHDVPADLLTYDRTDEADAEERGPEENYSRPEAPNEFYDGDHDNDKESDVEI
T2 sequence (Q9Y618 395-489 partner limits assumed): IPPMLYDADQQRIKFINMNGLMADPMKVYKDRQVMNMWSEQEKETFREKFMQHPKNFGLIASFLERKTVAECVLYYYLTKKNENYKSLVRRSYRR
Source text: as §1

recombinant human HDAC2 = biological target: T3, recombinant human HDAC2 (Homo sapiens, UniProt Q92769); assay: 384-well fluorometric deacetylase assay (substrate MAZ1600), HDAC2; settings: for HDAC2 slope: rate of reaction (slope), DMSO control 40839; for % HDAC2 Activ: slope normalized to mean of DMSO control (DMSO = 1.00)
T3 construct: purchased BPS Biosciences
T3 sequence (Q92769 whole entry): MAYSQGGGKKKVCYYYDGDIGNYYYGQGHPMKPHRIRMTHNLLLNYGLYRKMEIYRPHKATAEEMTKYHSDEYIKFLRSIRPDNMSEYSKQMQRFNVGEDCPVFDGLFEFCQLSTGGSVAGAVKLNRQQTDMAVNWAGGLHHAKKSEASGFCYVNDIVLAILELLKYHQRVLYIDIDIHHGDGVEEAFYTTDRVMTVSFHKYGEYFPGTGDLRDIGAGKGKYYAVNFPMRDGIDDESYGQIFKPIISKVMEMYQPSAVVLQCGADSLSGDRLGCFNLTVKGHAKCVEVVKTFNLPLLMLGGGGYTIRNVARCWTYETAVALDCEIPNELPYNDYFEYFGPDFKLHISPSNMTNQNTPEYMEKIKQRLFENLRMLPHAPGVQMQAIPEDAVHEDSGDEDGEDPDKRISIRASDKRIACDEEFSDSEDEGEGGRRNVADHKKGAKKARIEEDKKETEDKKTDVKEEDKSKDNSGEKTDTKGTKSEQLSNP
Source text: as §1

recombinant human HDAC1 = biological target: T4, recombinant human HDAC1 (Homo sapiens, UniProt Q13547); assay: 384-well fluorometric deacetylase assay (substrate MAZ1600), HDAC1; set-up: % HDAC1 Activ: unit not given here; settings: for Classification: class assigned from the HDAC1, 2, 3, 5 panel; for HDAC1 slope: rate of reaction (slope), DMSO control 37787; for % HDAC1 Activ: slope normalized to mean of DMSO control (DMSO = 1.00)
T4 construct: purchased BPS Biosciences
T4 sequence (Q13547 whole entry): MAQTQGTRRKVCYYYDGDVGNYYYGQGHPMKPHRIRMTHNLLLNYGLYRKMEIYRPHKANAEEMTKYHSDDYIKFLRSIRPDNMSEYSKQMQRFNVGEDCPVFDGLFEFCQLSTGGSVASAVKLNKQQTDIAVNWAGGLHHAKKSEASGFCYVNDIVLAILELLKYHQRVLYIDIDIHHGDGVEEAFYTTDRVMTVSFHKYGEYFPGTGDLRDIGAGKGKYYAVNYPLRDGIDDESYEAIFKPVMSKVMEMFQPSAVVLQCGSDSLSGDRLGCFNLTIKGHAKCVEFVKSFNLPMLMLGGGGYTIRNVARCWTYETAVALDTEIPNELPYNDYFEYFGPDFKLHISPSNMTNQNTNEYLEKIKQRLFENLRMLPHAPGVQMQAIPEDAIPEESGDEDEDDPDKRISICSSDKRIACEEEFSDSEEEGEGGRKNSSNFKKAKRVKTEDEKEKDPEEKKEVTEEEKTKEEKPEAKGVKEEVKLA
Source text: as §1

| Molecule | HDAC5 slope (recombinant human HDAC5) | HDAC3 slope (recombinant human HDAC3) | HDAC2 slope (recombinant human HDAC2) | Classification (recombinant human HDAC1) | HDAC1 slope (recombinant human HDAC1) | % HDAC5 activ (recombinant human HDAC5) | % HDAC3 Activ (recombinant human HDAC3) | % HDAC2 Activ (recombinant human HDAC2) | % HDAC1 Activ (recombinant human HDAC1) |
| --- | --- | --- | --- | --- | --- | --- | --- | --- | --- |
| CCN(CC)CCc1nc(-c2ccccc2)no1.O=C(O)CC(O)(CC(=O)O)C(=O)O [Oxalamine citrate salt] | 47216 | 60752 | 41269 | HDAC1 & HDAC3 activator | 40700 | – | – | – | – |
| NC(C(=O)O)c1nnn[nH]1 (racemic) | 45589 | 56930 | 42215 | HDAC1 activator | 40343 | – | – | – | – |
| CP(=O)(O)CCCN [SK&F 97541] | 49250 | 54915 | 39881 | HDAC1 activator | 40213 | – | – | – | – |
| N[C@H](CC(=O)O)C(=O)O [D- ASPARTIC ACID, D-aspartic acid] | 45291 | 54899 | 42016 | HDAC1 activator | 40655 | – | – | – | – |
| O=C(O)[C@H]1C[C@@H](CP(=O)(O)O)CCN1 [CGS 19755] | 48280 | 57057 | 42301 | HDAC1 activator | 41839 | – | – | – | – |
| phenazopyridine hydrochloride [Phenazo- pyridine hydrochloride] | 54125 | 56613 | 42470 | HDAC1 activator | 40631 | 107% | 1.04 fraction of DMSO control | 1.04 fraction of DMSO control | 1.08 |
| CC(O)(P(=O)([O-])O)P(=O)([O-])O.[Na+].[Na+] [Etidronic acid, disodium salt] | 51711 | 58286 | 41315 | HDAC1 & HDAC3 activator | 40241 | – | – | – | – |
| Oc1cc2c(c(Cl)c1O)CCNC[C@@H]2c1ccccc1 [R(+)-SKF- 81297] | 48294 | 66733 | 42197 | HDAC1 & HDAC3 activator | 40201 | – | – | – | – |
| COc1cc([C@@H]2c3cc4c(cc3[C@H](O)[C@H]3COC(=O)[C@H]23)OCO4)cc(OC)c1OC [Podophyllo toxin, podophyllotoxin] | 54734 | 53416 | 39197 | HDAC1 activator | 40983 | – | – | – | – |
| C[C@H](N)[C@H](O)c1ccc(O)c(O)c1 [Levonordefrin] | 47752 | 62457 | 40182 | HDAC1 & HDAC3 activator | 40405 | – | – | – | – |
| CC1(C)S[C@@H]2[C@H](NC(=O)[C@H](N)c3ccccc3)C(=O)N2[C@H]1C(=O)O [Ampicillin trihydrate] | 46606 | 56660 | 43966 | HDAC1 & HDAC3 activator | 40160 | – | – | – | – |
| C[C@](N)(Cc1ccc(O)c(O)c1)C(=O)O [Methyldopa (L,-)] | 56516 | 60891 | 42153 | HDAC1 & HDAC3 activator | 40553 | – | – | – | – |
| O=C(O)[C@@H]1C[C@H]2C[C@@H](CP(=O)(O)O)CC[C@H]2CN1 [LY 235959] | 43688 | 65435 | 42923 | HDAC1 & HDAC3 activator | 40893 | – | – | – | – |
| NCC(CC(=O)O)c1ccc(Cl)s1 (racemic) [(+-)-4-amino-3-(5-chloro-2-thienyl)-butanoic acid] | 50272 | 54049 | 40008 | HDAC1 activator | 40239 | 100% | 0.99 fraction of DMSO control | 0.98 fraction of DMSO control | 1.06 |
